According to patent US20080057010A1, “METHOD FOR SKIN CARE” (NULIV SCIENCE LTD., priority 2006, published 2008):

Tests used:
collagen I [1] = assay: Collagen I expression and secretion in human HDF cells (western blot); type: cell-based; conditions: relative to 0 = 1.00
Method: (§1) Primary human dermal fibroblasts cells (HDF) were purchased from Cascade Biologics (Portland, Oreg., USA) and cultured in medium 106 supplemented with 10% fetal bovine serum (FBS), 100 IU/mL penicillin, 100 μg/mL of streptomycin. The cells from passages 4 to 10 were used for this study. Culture medium was replaced every other day. After confluence, the cells were subcultured following trypsinization. For subcultures cells were harvested after brief treatment with 0.1% trypsin/EDTA solution and seeded at a dilution of 1:10. The cells were seeded at 1×10^5 cells in 6-well culture plate for 24 h before treated with astragalosides or crude extracts, such as butanol fraction and water insoluble fraction of Astragalus membranaceus for the indicated time periods. Control cultures were maintained in medium supplemented with vehicle (dimethyl sulfoxide, DMSO, 0.1%). No growth and differentiation effects of DMSO were observed under these culture conditions.
(§2) The cells were treated with pure compounds such as astragaloside I (AS 1), astragaloside II (AS2), astragaloside III (AS3), astragaloside IV (AS4), astragaloside VI (AS6), isoastragaloside I (isoAS1), isoastragaloside II (isoAS2), and cycloastragenol 6-O-β-D-glucopyranose (AA) at concentrations of 0-10 μM. Alternatively, the cells were also treated with the crude extracts, such as butanol fraction and water insoluble fraction of Astragalus membranaceus at concentrations of 0, 1, 10, and 40 μg/mL. The cells were treated with the indicated compounds or the extracts for 24 h before harvested for analysis of collagen I and III expressed in the whole cell extract or secreted into the culture medium.
(§3) Western blot analysis was carried out on both of cultured medium and cell lysates. The cells were plated on 6-cm dishes at a density of 1×10^6 cells/dish for 24 h prior to treatment with indicated concentrations of astragalus triterpenoids as indicated for another 48 h. The conditioned culture mediums were then centrifuged, 2-fold concentrated and collected for assay of collagens and MMPs secreted into the culture medium. The cells were washed and lysed in 0.2 mL of lysis buffer (1% NP-40, 50 mM Tris-HCl, pH 7.4, 180 mM NaCl, 1 mM EDTA, 1 mM PMSF, 1 mM NaF, 10 mM Na3VO4) for 30 min at 4° C. After centrifuging at 17500 g for 15 min, the supernatants of cell lysate were also collected. Protein concentration of the samples were measured using the bicinchoninic acid (BCA) protein assay kit according to the manufacturer's protocol (Pierce, Rockford, Ill., USA). Equal amount of protein samples of concentrated conditioned medium (100 μg) or cell lysate supernatants (50 μg) were mixed with an appropriate volume of 4×SDS sampling buffer and separated by 8% SDS-PAGE gel. The protein bands separated in the SDS-PAGE gel were blotted onto a polyvinylidene fluoride (PVDF) membrane. The blotted PVDF membrane was washed twice and blocked in freshly prepared Tris-buffered saline (TBS) containing 0.1% Tween-20 and 7% skim milk (TBST) for 2 h at room temperature. The PVDF membrane was then incubated with either antibodies against collagen I and III or the housekeeping protein α-tubulin (Santa Cruz Biotechnology, Santa Cruz, Calif.) for 18 h at 4° C. Horseradish peroxidase-conjugated anti-goat antibody was used as secondary antibody. Signals were visualized by an enhanced chemiluminescence kit (Clonetech, Palo Alto, Calif., USA) followed by exposure to X-ray films.
The collagen expression in the human HDF cells was also determined. […] And Collage I was over-expressed in the cells treated with various doses (1, 10, 40 μg/mL) of the crude extracts, such as butanol fraction and water insoluble fraction of Astragalus membranaceus.

MMP-1 [2] = assay: Quantitative analysis of MMP-1 transcripts in HDF cells (qRT-PCR); type: cell-based, human; conditions: 0.1 μM, MMP-1 mRNA relative to 0 = 1.00
Method: Relative levels of MMP-1 expression in HDF cells were determined by qRT-PCR. Preparation of total RNA and cDNA were carried out as described in previous sections. qRT-PCR was performed using the Applied Biosystem 7300 system and pre-developed Taqman Gene Expression Assays (Applied Biosystems, Foster City, Calif., USA). The reaction was performed as described in previous sections except that primer mix for human MMP-1 (assay ID HS00233958_m1, Applied Biosystems) and GAPDH (assay ID Hs99999905_m1, Applied Biosystems) were used.
Results shown in Tables 6A and 6B represent the quantitated data from zymography analysis of MMP-2 protein in HaCaT cells and qRT-PCR for MMP-1 in HDF cells. The concentrations used were 0, 0.01. 0.1, 1 μM (if not indicated otherwise) for pure compounds; and were 0, 1, 10, 40 μg/mL for crude extract (if not indicated otherwise). The cells were treated with the indicated compounds for 24 h before harvested for analysis of Pro-MMP-2 or activated MMP-2 in whole cell extract. Fifty micrograms of the cell extract samples were used for electrophoresis.

collagen III = assay: Collagen III expression and secretion in human HDF cells (western blot); type: cell-based; conditions: relative to 0 = 1.00
Method: as §1, §2, §3

collagen I [3] = assay: Collagen I expression in human HaCaT cells (western blot); type: cell-based; conditions: relative to 0 μM = 1.00
Method: The Spontaneously transformed human keratinocyte cell lines HaCaT cells were grown at 37° C. in a humidified incubator under 5% CO2 and 95% air in culture medium such as Dulbecco Modified Eagle Medium (DMEM) supplemented with 10% Fetal Bovine Serum (FBS), 100 IU/mL penicillin, 100 μg/mL of streptomycin, 2 mM sodium pyruvate and 1% Non-Essential Amino Acids (NEAA). The culture medium was replaced every other day. After confluence, the cells were subcultured following trypsinization. For subcultures cells were harvested after brief treatment with 0.1% trypsin/ethylenediaminetetraacetic acid (EDTA) solution and seeded at a dilution of 1:10. Cells between passages 12 and 45 were used for studies. The cells were seeded and incubated for 24 h before treated with the astragalosides for 24 h. Control cultures were maintained in medium supplemented with vehicle (dimethyl sulfoxide (DMSO) 0.1%). No growth and differentiation effects of DMSO were observed under these culture conditions.
as §2, §3
Results shown represent the quantitated data from western blot analysis. […] The collagen I was also over-expressed in the human HaCaT cells treated with 40 μg/mL of astragaloside extract.

HaCaT cells = assay: Glucosamine uptake assay in HaCaT cells; type: cell-based, human; conditions: 0.1 μM
Method: In glucosamine uptake test, HaCaT cells were seeded into 24-well plate at a density of 3×10^4 cells/well and cultured for 24 h. The cells were then treated in the absence (solvent control) or presence of various concentrations of astragalosides for another 48 h. The treated cells were then washed twice with PBS and incubated in glucose and serum free medium (GSFM). After 2 h, the cells were replaced with fresh GSFM containing 0.2 μCi of [^14C]-Glucosamine (American Radiolabelled Chemicals Inc, ARC, St. Louis, Mo., USA). At the designated time interval, the cells were washed twice with GSFM containing cold glucosamine and then lysed in 200 μL 2% SDS. Cell lysates were centrifuged at 15000 g for 15 min. Intracellular uptaken glucosamine was determined by transferring 10 μL of the cell lysate to filter-bottemed UniFilter plates (Perkim-Elmer) and counted. Protein concentration of the samples was measured using the BCA protein assay kit as described above. Glucosamine accumulated in the cells was calculated and normalized to protein concentration and uptake rate was expressed as counts per minute per microgram of cell protein (cpm/min/μg).

MMP-1 [4] = assay: UV-B-induced MMP-1 expression in human HDF cells (western blot, FIG. 1); type: cell-based; conditions: 50 mJ/cm^2 UV-B, positive control (FIG. 1 lane 3)
Method: To characterize the effects of astragalosides on the expression level of MMPs in human cells, HDF or HaCaT cells were first treated with or without various concentrations of astragalosides for 24 h. The cells were washed with phosphate-buffered saline (PBS) and irradiated with 10-100 mJ/cm^2 of UV-B (312 nm) for HDF-1 and HaCaT cells, respectively, using the UV light irradiator (UVItec unlimited, Cambridge, England). The cells were then washed and incubated with serum free medium for 24 h before harvested for analysis. The effect of astragalosides on MMPs levels was analyzed by western blot and the activity of MMPs was analyzed by zymography. All trans retinoic acid (atRA) was used as a positive control to suppress the UV-B-induced MMPs activation and expression.
Human HDF cells were treated with the indicated concentrations of water insoluble fraction of Astragalus membranaceus for 24 h. The cells were then irradiated with 50 mJ/cm^2 of UV-B. After 24 h, the cells were harvested for western blot analysis. […] Thus, the water insoluble fraction of Astragalus membranaceus is a potential agent for the prevention and treatment of skin aging as a result of UV irradiation.

CC(C)(O)C1CC[C@](C)(C2[C@@H](O)C[C@@]3(C)C4C[C@H](OC5OC(CO)C(O)C(O)C5O)C5C(C)(C)[C@@H](O)CCC56CC46CC[C@]23C)O1 (stereo partly drawn) [AA, cycloastragenol 6-O-β-D-glucopyranose]
Collagen I in cell (collagen I [1]; 0.01 μM): 1.04 | Collagen I in medium (collagen I [1]; 0.01 μM): 0.97 | Collagen I in cell (collagen I [1]; 0.1 μM): 1.85 | Collagen I in medium (collagen I [1]; 0.1 μM): 0.95 | Collagen I in cell (collagen I [1]; 1 μM): 1.17 | Collagen I in medium (collagen I [1]; 1 μM): 1.52 | MMP-1 Q-PCR (MMP-1 [2]): 0.76 | Collagen III in medium (collagen III; 0.01 μM): 1.03 | Collagen III in medium (collagen III; 0.1 μM): 1.62 | Collagen III in medium (collagen III; 1 μM): 1.34 | Collagen I in cell (collagen I [3]; 0.01 μM): 2.57 | Collagen I in cell (collagen I [3]; 0.1 μM): 3.34 | Collagen I in cell (collagen I [3]; 1 μM): 3.47 | Uptake rate (glucosamine) (HaCaT cells; 48 h treatment): 0.9445 ± 0.0823 CPM/μg protein | Percentage (%) of control glucosamine uptake (HaCaT cells; relative to control): 114.59%

CC1=C(/C=C/C(C)=C/C=C/C(C)=C/C(=O)O)C(C)(C)CCC1 [atRA, All trans retinoic acid]
UV-mediated induction of MMP-1 expression (MMP-1 [4]): blocked
